Data taken from the supplement of paper PMC11451515.

Experiments:
Details in all cases: 48 h
[1] = test system: NOMO1; assay: cell viability relative to DMSO control; higher = less cytotoxic
Method in brief: (§1)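 Viability is a per-plate percentage relative to DMSO wells, with cell-free wells as background. CellTiter-Glo One luminescence was read after 48 h at 37°C on 1536-well plates (5 μl) of NOMO1 or SEM (500 cells/well) or P12-Ichikawa (1000 cells/well) leukemia cells. The cells had been adapted for at least four passages in each medium and pin-dosed with library compounds in DMSO from 47 μM to 0.79 nM in 11 threefold steps.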

[2] = test system: P12-Ichikawa; assay: as above
Method in brief: as §1

[3] = test system: SEM cells; assay: as above
Method in brief: as §1

[4] = test system: NOMO1; assay: AUC of viability dose-response curve (% viability x log10 dose units); higher = less sensitive
Method in brief: (§2)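 In 1536-well plates, leukemia cells adapted to each medium (500 or 1000 cells/well) were exposed for 48 h at 37°C to library compounds in DMSO across 11 threefold doses, 47 μM down to 0.79 nM. Viability was read by CellTiter-Glo One luminescence and normalised per plate to DMSO and cell-free wells. A four-parameter log-logistic fit over log10 doses was integrated by trapezoidal rule. This yielded the area under the curve, with over-full-viability curves scaled and quality-control failures dropped.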

[5] = test system: SEM cells; assay: as above
Method in brief: as §2

[6] = test system: P12-Ichikawa; assay: as above
Method in brief: as §2

CC(C)OC(=O)/C1=C/N(CC(C)(C)C2=C1[NH]C3=CC=CC=C23)C(=O)C4=CC=C(F)C(=C4)F
cell viability [%]
Details	[1]	[2]	[3]
HPLM + 10% dialyzed FBS, 0.000781 µM	86.3	83.2	71.9
HPLM + 10% dialyzed FBS, 0.00234 µM	80.4	84.5	76
HPLM + 10% dialyzed FBS, 0.00702 µM	86	82.2	75.3
HPLM + 10% dialyzed FBS, 0.0211 µM	91.8	89.6	73.4
HPLM + 10% dialyzed FBS, 0.0632 µM	81.3	89.4	81
HPLM + 10% dialyzed FBS, 0.19 µM	89.8	83.4	68.9
HPLM + 10% dialyzed FBS, 0.569 µM	98.3	86.4	62
HPLM + 10% dialyzed FBS, 1.71 µM	98	83.9	72.9
HPLM + 10% dialyzed FBS, 5.12 µM	89.9	87.8	78.9
HPLM + 10% dialyzed FBS, 15.4 µM	85.6	91.6	59.6
HPLM + 10% dialyzed FBS, 46.1 µM	91.2	95.7	67.1
RPMI 5 mM glucose + 10% FBS, 0.000781 µM	72.7	79	76.8
RPMI 5 mM glucose + 10% FBS, 0.00234 µM	78.4	78.7	83.5
RPMI 5 mM glucose + 10% FBS, 0.00702 µM	79.7	79	88.2
RPMI 5 mM glucose + 10% FBS, 0.0211 µM	80.8	79	80.2
RPMI 5 mM glucose + 10% FBS, 0.0632 µM	89	83.4	79.8
RPMI 5 mM glucose + 10% FBS, 0.19 µM	79.4	83.9	67.7
RPMI 5 mM glucose + 10% FBS, 0.569 µM	84.3	84.9	71.1
RPMI 5 mM glucose + 10% FBS, 1.71 µM	76.4	82.9	71.8
RPMI 5 mM glucose + 10% FBS, 5.12 µM	82.7	87.2	79.6
RPMI 5 mM glucose + 10% FBS, 15.4 µM	78.2	84.1	61.8
RPMI 5 mM glucose + 10% FBS, 46.1 µM	83.5	83.8	78.6
RPMI 5 mM glucose + 10% dialyzed FBS, 0.000781 µM	74.5	75.3	72.9
RPMI 5 mM glucose + 10% dialyzed FBS, 0.00234 µM	74.8	77.3	82
RPMI 5 mM glucose + 10% dialyzed FBS, 0.00702 µM	70.6	78.1	80
RPMI 5 mM glucose + 10% dialyzed FBS, 0.0211 µM	70.8	85.2	86
RPMI 5 mM glucose + 10% dialyzed FBS, 0.0632 µM	69.4	78.5	94.9
RPMI 5 mM glucose + 10% dialyzed FBS, 0.19 µM	70.6	80.7	89
RPMI 5 mM glucose + 10% dialyzed FBS, 0.569 µM	66.6	75.9	71.5
RPMI 5 mM glucose + 10% dialyzed FBS, 1.71 µM	82	75.7	87.4
RPMI 5 mM glucose + 10% dialyzed FBS, 5.12 µM	80.5	78.4	106
RPMI 5 mM glucose + 10% dialyzed FBS, 15.4 µM	79.1	73.7	65.5
RPMI 5 mM glucose + 10% dialyzed FBS, 46.1 µM	72.5	82.4	73.1

AUC of viability dose-response curve
Details	HPLM + 10% dialyzed FBS	RPMI 5 mM glucose + 10% FBS	RPMI 5 mM glucose + 10% dialyzed FBS
[4]	424	384	351
[5]	342	364	394

N#Cc1ccc(COC[C@H]2O[C@@H](n3c(NCc4ccc(Cl)c(Cl)c4)nc4c(N)ncnc43)[C@H](O)[C@@H]2O)cc1
AUC of viability dose-response curve
Details	[4]	[5]	[6]
HPLM + 10% dialyzed FBS	420	465	458
RPMI 5 mM glucose + 10% FBS	428	411	414
RPMI 5 mM glucose + 10% dialyzed FBS	420	431	415

Cc1ccccc1C(=O)c1ccc(Nc2ccc(Br)cc2N)cc1Cl
cell viability [%]
Details	[1]	[2]	[3]
HPLM + 10% dialyzed FBS, 0.000781 µM	–	117	–
HPLM + 10% dialyzed FBS, 0.00234 µM	–	122	–
HPLM + 10% dialyzed FBS, 0.00702 µM	–	119	–
HPLM + 10% dialyzed FBS, 0.0211 µM	–	104	–
HPLM + 10% dialyzed FBS, 0.0632 µM	–	114	–
HPLM + 10% dialyzed FBS, 0.19 µM	–	118	–
HPLM + 10% dialyzed FBS, 0.569 µM	–	114	–
HPLM + 10% dialyzed FBS, 1.71 µM	–	114	–
HPLM + 10% dialyzed FBS, 5.12 µM	–	105	–
HPLM + 10% dialyzed FBS, 15.4 µM	–	98.6	–
HPLM + 10% dialyzed FBS, 46.1 µM	–	51.5	–
RPMI 5 mM glucose + 10% FBS, 0.000781 µM	107	117	96
RPMI 5 mM glucose + 10% FBS, 0.00234 µM	123	122	106
RPMI 5 mM glucose + 10% FBS, 0.00702 µM	116	121	97.7
RPMI 5 mM glucose + 10% FBS, 0.0211 µM	122	110	17.3
RPMI 5 mM glucose + 10% FBS, 0.0632 µM	120	119	109
RPMI 5 mM glucose + 10% FBS, 0.19 µM	113	108	123
RPMI 5 mM glucose + 10% FBS, 0.569 µM	110	117	112
RPMI 5 mM glucose + 10% FBS, 1.71 µM	121	113	107
RPMI 5 mM glucose + 10% FBS, 5.12 µM	116	111	106
RPMI 5 mM glucose + 10% FBS, 15.4 µM	103	108	83.2
RPMI 5 mM glucose + 10% FBS, 46.1 µM	90.1	53.7	18.2
RPMI 5 mM glucose + 10% dialyzed FBS, 0.000781 µM	131	117	117
RPMI 5 mM glucose + 10% dialyzed FBS, 0.00234 µM	116	121	121
RPMI 5 mM glucose + 10% dialyzed FBS, 0.00702 µM	112	127	123
RPMI 5 mM glucose + 10% dialyzed FBS, 0.0211 µM	120	119	21.4
RPMI 5 mM glucose + 10% dialyzed FBS, 0.0632 µM	118	122	112
RPMI 5 mM glucose + 10% dialyzed FBS, 0.19 µM	126	118	102
RPMI 5 mM glucose + 10% dialyzed FBS, 0.569 µM	107	117	116
RPMI 5 mM glucose + 10% dialyzed FBS, 1.71 µM	121	111	110
RPMI 5 mM glucose + 10% dialyzed FBS, 5.12 µM	114	105	122
RPMI 5 mM glucose + 10% dialyzed FBS, 15.4 µM	93.7	89	86.3
RPMI 5 mM glucose + 10% dialyzed FBS, 46.1 µM	71.5	35.5	21.4

AUC of viability dose-response curve
Details	HPLM + 10% dialyzed FBS	RPMI 5 mM glucose + 10% FBS	RPMI 5 mM glucose + 10% dialyzed FBS
[4]	467	466	455
[6]	454	461	441

NC/1=N/C(=O)C2=C(N1)[N](C=N2)[C@@H]3C[C@H](O)[C@@H](CO)C3=C
AUC of viability dose-response curve
Details	[4]	[5]	[6]
HPLM + 10% dialyzed FBS	385	248	351
RPMI 5 mM glucose + 10% FBS	423	272	342
RPMI 5 mM glucose + 10% dialyzed FBS	378	200	331

COC(=O)Nc1nc2cc(C(=O)c3ccccc3)ccc2[nH]1
cell viability [%], [3]
Details	HPLM + 10% dialyzed FBS	RPMI 5 mM glucose + 10% FBS
0.000781 µM	115	120
0.00234 µM	124	125
0.00702 µM	130	125
0.0211 µM	126	122
0.0632 µM	100	96.4
0.19 µM	24.4	18
0.569 µM	69.6	59.3
1.71 µM	128	86.8
5.12 µM	26.6	22.6
15.4 µM	24.1	23.4
46.1 µM	24.1	19.2

AUC of viability dose-response curve
Details	HPLM + 10% dialyzed FBS	RPMI 5 mM glucose + 10% FBS	RPMI 5 mM glucose + 10% dialyzed FBS
[4]	401	389	397
[5]	303	286	291
